Measured values published in patent publication US7846945B2, “Piperdine-based inhibitors of sodium glucose co-transporter 2 and methods of their use” (Lexicon Pharmaceuticals, Inc., priority 2007, dated 2010).

target: T1, Human sodium/glucose co-transporter type 2 (SGLT2) (Homo sapiens, UniProt P31639); assay: In vitro human SGLT2 inhibition assay (14C-AMG uptake); assay type: cell-based; details: HEK293 cells expressing human HA-SGLT2; potent = SGLT2 IC50 of less than about 500 nM; read-out: SGLT2 IC50 (potent SGLT2 inhibitor mark)
T1 construct: HA; expressed in transfected cells
T1 sequence (P31639 1-672): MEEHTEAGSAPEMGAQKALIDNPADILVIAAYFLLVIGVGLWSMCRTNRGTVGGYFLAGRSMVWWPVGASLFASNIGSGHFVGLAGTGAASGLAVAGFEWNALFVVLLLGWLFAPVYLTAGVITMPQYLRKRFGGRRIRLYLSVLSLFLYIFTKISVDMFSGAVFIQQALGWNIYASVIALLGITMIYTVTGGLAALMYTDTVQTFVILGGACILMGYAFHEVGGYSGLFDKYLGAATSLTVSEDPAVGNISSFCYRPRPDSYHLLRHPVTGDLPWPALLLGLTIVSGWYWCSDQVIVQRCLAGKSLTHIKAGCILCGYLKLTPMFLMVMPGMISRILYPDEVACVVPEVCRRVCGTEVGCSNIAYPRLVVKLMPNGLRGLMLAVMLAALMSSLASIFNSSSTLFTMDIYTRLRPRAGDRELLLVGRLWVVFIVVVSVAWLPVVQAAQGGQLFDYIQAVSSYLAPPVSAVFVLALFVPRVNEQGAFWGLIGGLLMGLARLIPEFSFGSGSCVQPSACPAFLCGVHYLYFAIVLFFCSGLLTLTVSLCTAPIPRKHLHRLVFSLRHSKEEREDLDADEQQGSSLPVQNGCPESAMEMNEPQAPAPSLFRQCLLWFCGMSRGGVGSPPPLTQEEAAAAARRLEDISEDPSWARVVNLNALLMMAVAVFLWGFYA
Method: HEK293 cells were transfected with the human HA-SGLT2-pIRESpuro2 vector and the bulk stable cell line was selected in presence of 0.5 μg/ml of puromycin. Human HA-SGLT2 cells were maintained in DMEM media containing 10% FBS, 1% GPS and 0.5 μg/ml of puromycin.
The HEK293 cells expressing the human HA-SGLT2 were seeded in 384 well plates (30,000 cells/well) in DMEM media containing 10% FBS, 1% GPS and 0.5 μg/ml of puromycin, then incubated overnight at 37 C, 5% CO2. Cells were then washed with uptake buffer (140 mM NaCl, 2 mM KCl, 1 mM CaCl2, 1 mM MgCl2, 10 mM HEPES, 5 mM Tris, 1 mg/ml bovine serum albumin (BSA), pH 7.3). Twenty microliters of uptake buffer with or without testing compounds were added to the cells. Then, 20 microliters of uptake buffer containing ^14C-AMG (100 nCi) were added to the cells. The cell plates were incubated at 37° C., 5% CO2 for 1-2 hours. After washing the cells with uptake buffer, scintillation fluid was added (40 microliters/well) and ^14C-AMG uptake was measured by counting radioactivity using a scintillation coulter (TopCoulter NXT; Packard Instruments).
The IC50 of a compound with regard to a given target is determined by fitting the relevant data, using the Levenburg Marquardt algorithm, to the equation: y=A+((B−A)/(1+((C/x)^D))) wherein A is the minimum y value; B is the maximum y value; C is the IC50; and D is the slope.

| Structure (SMILES) | IC50 [µM] |
| --- | --- |
| COC1O[C@@H](c2ccc(Cl)c(Cc3ccc(OCCSC)cc3)c2)[C@H](O)[C@@H](O)[C@@H]1O (stereo partly drawn) [(2S,3R,4R,5S)-2-{4-Chloro-3-[4-(2-methylsulfanyl-ethoxy)-benzyl]-phenyl}-6-methoxy-tetrahydro-pyran-3,4,5-triol] | < 0.5 |
| CCOc1ccc(Cc2cc([C@H]3[C@H](O)[C@@H](O)[C@H](O)CN3C(C)=O)ccc2Cl)cc1 [1-{(2S,3S,4S,5R)-2-[4-Chloro-3-(4-ethoxy-benzyl)-phenyl]-3,4,5-trihydroxy-piperidin-1-yl}-ethanone] | < 0.5 |
| CCOc1ccc(Cc2cc([C@@H]3O[C@H](SCC(F)(F)F)[C@@H](O)[C@H](O)[C@H]3O)ccc2Cl)cc1 [(2S,3R,4R,5S,6R)-2-[4-Chloro-3-(4-ethoxy-benzyl)-phenyl]-6-(2,2,2-trifluoro-ethylsulfanyl)-tetrahydro-pyran-3,4,5-triol] | < 0.5 |
| CCOc1ccc(Cc2cc([C@@H]3O[C@H](SCc4ccco4)[C@@H](O)[C@H](O)[C@H]3O)ccc2Cl)cc1 [(2S,3R,4R,5S,6R)-2-[4-Chloro-3-(4-ethoxy-benzyl)-phenyl]-6-(furan-2-ylmethylsulfanyl)-tetrahydro-pyran-3,4,5-triol] | < 0.5 |
| COC1O[C@@H](c2ccc(Cl)c(Cc3ccc(Oc4nccs4)cc3)c2)[C@H](O)[C@@H](O)[C@@H]1O (stereo partly drawn) [(2S,3R,4R,5S)-2-{4-Chloro-3-[4-(thiazol-2-yloxy)-benzyl]-phenyl}-6-methoxy-tetrahydro-pyran-3,4,5-triol] | < 0.5 |
| CCOc1ccc(Cc2cc([C@@H]3O[C@H](OCCO)[C@@H](O)[C@H](O)[C@H]3O)ccc2Cl)cc1 [(2S,3R,4R,5S,6S)-2-[4-Chloro-3-(4-ethoxy-benzyl)-phenyl]-6-(2-hydroxy-ethoxy)-tetrahydro-pyran-3,4,5-triol] | < 0.5 |
| CCOc1ccc(Cc2cc(C3NC(CO)[C@@H](O)[C@H](O)[C@H]3O)ccc2Cl)cc1 (stereo partly drawn) [(3S,4R,5R)-2-[4-Chloro-3-(4-ethoxy-benzyl)-phenyl]-6-hydroxymethyl-piperidine-3,4,5-triol] | < 0.5 |
| CCOc1ccc(Cc2cc([C@@H]3OC(OCCS)[C@@H](O)[C@H](O)[C@H]3O)ccc2Cl)cc1 (stereo partly drawn) [(2S,3R,4R,5S)-2-[4-Chloro-3-(4-ethoxy-benzyl)-phenyl]-6-(2-mercapto-ethoxy)-tetrahydro-pyran-3,4,5-triol] | < 0.5 |
| CCOc1ccc(Cc2cccc([C@@H]3OC(OC)[C@@H](O)[C@H](O)[C@H]3O)c2)cc1 (stereo partly drawn) [(2S,3R,4R,5S)-2-[3-(4-Ethoxy-benzyl)-phenyl]-6-methoxy-tetrahydro-pyran-3,4,5-triol] | < 0.5 |
| CCOc1ccc(Cc2cc([C@@H]3O[C@H](SCCNC(C)=O)[C@@H](O)[C@H](O)[C@H]3O)ccc2Cl)cc1 [N-(2-{(2R,3S,4R,5R,6S)-6-[4-Chloro-3-(4-ethoxy-benzyl)-phenyl]-3,4,5-trihydroxy-tetrahydro-pyran-2-ylsulfanyl}-ethyl)-acetamide] | < 0.5 |
| COC1O[C@@H](c2ccc(Cl)c(Cc3ccc(OCCO)cc3)c2)[C@H](O)[C@@H](O)[C@@H]1O (stereo partly drawn) [(2S,3R,4R,5S)-2-{4-Chloro-3-[4-(2-hydroxy-ethoxy)-benzyl]-phenyl}-6-methoxy-tetrahydro-pyran-3,4,5-triol] | < 0.5 |

Results, then the compound that gave them:

| IC50 [µM] | Structure (SMILES) |
| --- | --- |
| < 0.5 | COCCOc1ccc(Cc2cc([C@@H]3OC(OC)[C@@H](O)[C@H](O)[C@H]3O)ccc2Cl)cc1 (stereo partly drawn) [(2S,3R,4R,5S)-2-{4-Chloro-3-[4-(2-methoxy-ethoxy)-benzyl]-phenyl}-6-methoxy-tetrahydro-pyran-3,4,5-triol] |
| < 0.5 | CCOc1ccc(Cc2cc([C@@H]3O[C@H](SCC)[C@@H](O)[C@H](O)[C@H]3O)ccc2Cl)cc1 [(2S,3R,4R,5S,6R)-2-[4-Chloro-3-(4-ethoxy-benzyl)-phenyl]-6-ethylsulfanyl-tetrahydro-pyran-3,4,5-triol] |
| < 0.5 | CCOc1ccc(Cc2cc([C@@H]3OC(OCC(F)(F)F)[C@@H](O)[C@H](O)[C@H]3O)ccc2Cl)cc1 (stereo partly drawn) [(2S,3R,4R,5S)-2-[4-Chloro-3-(4-ethoxy-benzyl)-phenyl]-6-(2,2,2-trifluoro-ethoxy)-tetrahydro-pyran-3,4,5-triol] |
| < 0.5 | CCOc1ccc(Cc2cc([C@@H]3OC(OCc4ccccc4)[C@@H](O)[C@H](O)[C@H]3O)ccc2Cl)cc1 (stereo partly drawn) [(3S,4R,5R,6S)-2-Benzyloxy-6-[4-chloro-3-(4-ethoxy-benzyl)-phenyl]-tetrahydro-pyran-3,4,5-triol] |
| < 0.5 | CCOc1ccc(Cc2cc([C@H]3[C@H](O)[C@@H](O)[C@H](O)CN3Cc3ccccc3)ccc2Cl)cc1 [(2S,3S,4S,5R)-1-Benzyl-2-[4-chloro-3-(4-ethoxy-benzyl)-phenyl]-piperidine-3,4,5-triol] |
| < 0.5 | C=CCNC(=O)N1C[C@@H](O)[C@H](O)[C@@H](O)[C@@H]1c1ccc(Cl)c(Cc2ccc(OCC)cc2)c1 [(2S,3S,4S,5R)-2-[4-Chloro-3-(4-ethoxy-benzyl)-phenyl]-3,4,5-trihydroxy-piperidine-1-carboxylic acid allyl amide] |
| < 0.5 | CCOc1ccc(Cc2cc([C@@H]3O[C@H](SCCO)[C@@H](O)[C@H](O)[C@H]3O)ccc2Cl)cc1 [(2S,3R,4R,5S,6R)-2-[4-Chloro-3-(4-ethoxy-benzyl)-phenyl]-6-(2-hydroxy-ethylsulfanyl)-tetrahydro-pyran-3,4,5-triol] |
| < 0.5 | CCOc1ccc(Cc2cc([C@@H]3OC(OCCCO)[C@@H](O)[C@H](O)[C@H]3O)ccc2Cl)cc1 (stereo partly drawn) [(2S,3R,4R,5S)-2-[4-Chloro-3-(4-ethoxy-benzyl)-phenyl]-6-(3-hydroxy-propoxy)-tetrahydro-pyran-3,4,5-triol] |
| < 0.5 | COc1ccc(Sc2cc([C@@H]3OC(OC)[C@@H](O)[C@H](O)[C@H]3O)ccc2Cl)cc1 (stereo partly drawn) [(2S,3R,4R,5S)-2-[4-Chloro-3-(4-methoxy-phenylsulfanyl)-phenyl]-6-methoxy-tetrahydro-pyran-3,4,5-triol] |
| < 0.5 | CCOc1ccc(Cc2cc([C@@H]3O[C@H](SCC(N)=O)[C@@H](O)[C@H](O)[C@H]3O)ccc2Cl)cc1 [2-{(2R,3S,4R,5R,6S)-6-[4-Chloro-3-(4-ethoxy-benzyl)-phenyl]-3,4,5-trihydroxy-tetrahydro-pyran-2-ylsulfanyl}-acetamide] |
| < 0.5 | COC1O[C@@H](c2ccc(Cl)c(Cc3ccc(OCCOCc4ccccc4)cc3)c2)[C@H](O)[C@@H](O)[C@@H]1O (stereo partly drawn) [(2S,3R,4R,5S)-2-{3-[4-(2-Benzyloxy-ethoxy)-benzyl]-4-chloro-phenyl}-6-methoxy-tetrahydro-pyran-3,4,5-triol] |
| < 0.5 | COc1cc(Oc2ccc(Cc3cc([C@@H]4OC(OC)[C@@H](O)[C@H](O)[C@H]4O)ccc3Cl)cc2)nc(OC)n1 (stereo partly drawn) [(2S,3R,4R,5S)-2-{4-Chloro-3-[4-(2,6-dimethoxy-pyrimidin-4-yloxy)-benzyl]-phenyl}-6-methoxy-tetrahydro-pyran-3,4,5-triol] |
